Measurements reported in patent US9233185B2, “Absorbent article” (UNICHARM CORPORATION, priority 2012, dated 2016).

How the values were obtained:
[1] = Rewetting rate of sanitary napkin with top sheet coated with blood modifying agent; settings: horse EDTA blood 3.0 g twice at 37±1° C.; agent coated on top sheet at about 5 g/m^2
Experimental: A commercially available sanitary napkin was prepared. The sanitary napkin was formed from a top sheet, formed of a hydrophilic agent-treated air-through nonwoven fabric (composite fiber composed of polyester and polyethylene terephthalate, basis weight: 35 g/m^2), a second sheet, formed of an air-through nonwoven fabric (composite fiber composed of polyester and polyethylene terephthalate, basis weight: 30 g/m^2), an absorbent body comprising pulp (basis weight: 150-450 g/m^2, increased at the center section), an acrylic super-absorbent polymer (basis weight: 15 g/m^2) and tissue as a core wrap, a water-repellent agent-treated side sheet, and a back sheet composed of a polyethylene film.
(§1) The skin contact surface of the top sheet of the sanitary napkin was coated with the aforementioned blood modifying agent. Each blood modifying agent was used directly, when the blood modifying agent was liquid at room temperature, or when the blood modifying agent was solid at room temperature it was heated to its melting point +20° C., and a control seam HMA gun was used for atomization of the blood modifying agent and coating onto the entire skin contact surface of the top sheet to a basis weight of about 5 g/m^2.
(§2) An acrylic board with an opened hole (200 mm×100 mm, 125 g, with a 40 mm×10 mm hole opened at the center) was placed on a top sheet comprising each blood modifying agent, and 3.0 g of horse EDTA blood at 37±1° C. (obtained by adding ethylenediaminetetraacetic acid (hereunder, “EDTA”) to horse blood to prevent coagulation) was dropped through the hole using a pipette (once), and after 1 minute, 3.0 g of horse EDTA blood at 37±1° C. was again added dropwise through the acrylic board hole with a pipette (twice).
After the second dropping of blood, the acrylic board was immediately removed and 10 sheets of filter paper (Advantec Toyo Kaisha, Ltd, Qualitative Filter Paper No. 2, 50 mm×35 mm) were placed on the location where the blood had been dropped, and then a weight was placed thereover to a pressure of 30 g/cm^2. After 1 minute, the filter paper was removed, and the “rewetting rate” was calculated by the following formula. Rewetting rate(%)=100×(filter paper mass after test−initial filter paper mass)/6

[2] = Visual evaluation of whiteness of skin contact surface of top sheet; design: species or system horse; key: VG (Very Good): Virtually no redness of blood remaining, and no clear delineation between areas with and without blood.; G (Good): Slight redness of blood remaining, but difficult to delineate between areas with and without blood.; F (Fair): Slight redness of blood remaining, areas with blood discernible.; P (Poor): Redness of blood completely remaining; settings: after absorbent body migration rate test
Source text: The whiteness of the skin contact surface of the top sheet after the absorbent body migration rate test was visually evaluated on the following scale.
VG (Very Good): Virtually no redness of blood remaining, and no clear delineation between areas with and without blood.
G (Good): Slight redness of blood remaining, but difficult to delineate between areas with and without blood.
F (Fair): Slight redness of blood remaining, areas with blood discernible.
P (Poor): Redness of blood completely remaining.

[3] = Source text: The term “solubility” used herein in regard to water solubility includes cases where the sample completely dissolves in deionized water to form a homogeneous mixture, and cases where the sample is completely emulsified. Here, “completely” means that no mass of the sample remains in the deionized water.
[4] = Absorbent body migration rate after second dropping of blood; settings: time after second dropping of horse EDTA blood; agent about 5 g/m^2
Experimental: as §1, §2
In addition to the rewetting rate evaluation, the “absorbent body migration rate” was also measured as the time until migration of blood from the top sheet to the absorbent body after the second dropping of blood. The absorbent body migration rate is the time from introducing the blood onto the top sheet, until the redness of the blood […] on the surface and in the interior of the top sheet.

[5] = Surface tension of blood containing blood modifying agent, pendant drop method; settings: sheep defibrinated blood; amount 0.10 mass %; 35 ° C.
Experimental: The surface tension of blood containing a blood modifying agent was measured by the pendant drop method, using a Drop Master500 contact angle meter by Kyowa Interface Science Co., Ltd. The surface tension was measured after adding a prescribed amount of blood modifying agent to sheep defibrinated blood, and thoroughly shaking. The measurement was accomplished automatically with a device, and the surface tension γ was determined by the following formula (see FIG. 10). γ=g×ρ×(de)^2×1/H The density ρ was measured at the temperatures listed in Table 7, according to JIS K 2249-1995, “Density test methods and density/mass/volume conversion tables”, “5. Vibrating density test method”. The measurement was accomplished using a DA-505 by Kyoto Electronics Co., Ltd.

Row | Compound | Rewetting rate [1] | Top sheet whiteness [2] | Water solubility [3] | Absorbent body migration rate [4] | Surface tension [5]
1 | CCCCCCCCCCCC(=O)OCC(O)CO (centres unmarked) [90-L2 Lauric acid monoglyceride, lauric acid monoglyceride] | 6.2% | P | – | – | –
2 | CC(C)CCCCCCCCCCCCCCCOC(=O)CC(O)C(=O)OCCCCCCCCCCCCCCCC(C)C (centres unmarked) [Diisostearyl malate] | 5.5% | F | 20< g | 8 s | –
3 | CCCCCCCCOC(=O)CCCCC(=O)OCCCCCCCC [Dioctyl adipate] | 1.7% | VG | – | 6 s | –
4 | CCCCCCCCCCCCOC(=O)CCCCCCCCCCC [ELECTOL WE20, Ester of dodecanoic acid (C12) and dodecyl alcohol (C12)] | 1.8% | VG | – | – | 58.8 mN/m
5 | CCCCCCCCCCCCCC(=O)OCCCCCCCCCCCC [ELECTOL WE40, Ester of tetradecanoic acid (C14) and dodecyl alcohol (C12)] | 1.8% | VG | – | 4 s | –
6 | CCCCC(CC)C(=O)OCC(C)(C)COC(=O)C(CC)CCCC (centres unmarked) [H-208BRS, Neopentyl glycol di(2-ethylhexanoate)] | 2.0% | VG | <0.05 g | 5 s | –
7 | CCCCC(CC)C(=O)OCC(COC(=O)C(CC)CCCC)(COC(=O)C(CC)CCCC)COC(=O)C(CC)CCCC (centres unmarked) [H-408BRS, Pentaerythritol tetra(2-ethylhexanoate)] | – | VG | – | – | –
8 | CCCCC(CC)C(=O)OCC(COC(=O)C(CC)CCCC)OC(=O)C(CC)CCCC (centres unmarked) [PANACET 800B] | 2.0% | VG | <0.05 g | 3 s | –
9 | CCCCCCCC(=O)OCC(COC(=O)CCCCCCC)OC(=O)CCCCCCC [PANACET 800] | 0.3% | VG | <0.05 g | 3 s | –
10 | CCCCOC(=O)CC(CC(=O)OCCCC)(OC(C)=O)C(=O)OCCCC [Tributyl O-acetylcitrate] | 6.2% | VG | <0.05 g | 8 s | –
11 | Caprylic acid diglyceride [Caprylic diglyceride] | 4.2% | G | – | 9 s | –
12 | Isopropyl citrate | 12.2% | G | – | 5 s | –
